Experimental data published in PubChem BioAssay AID330 (DTP/NCI, 2004).
“And” between values parts separate entries of the source, which are not always exact repeats. Identical values can stand only once. Toxic doses and inconclusive results are not listed.

Test system: P388 leukemia ip, CD2F1 mice, survival T/C
Assay: NCI In Vivo Anticancer Drug Screen. Data for tumor model P388 Leukemia (intraperitoneal) in CD2F1 (CDF1) mice
Conditions: endpoint: median survival time, higher = longer survival
Outline: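 Mice carrying the transplanted tumor received test compound or vehicle. Survival was recorded in each group, and the value is the treated-group measurement divided by that of the vehicle-treated control group.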

[1] = dose: 12.5 mg/kg/injection, schedule: Q01DX009 (ip), vehicle: saline with Tween-80
[2] = dose: 25.0 mg/kg/injection, schedule: Q01DX009 (ip), vehicle: saline with Tween-80
[3] = dose: 50.0 mg/kg/injection, schedule: Q01DX009 (ip), vehicle: saline with Tween-80
[4] = dose: 100.0 mg/kg/injection, schedule: Q01DX009 (ip), vehicle: saline with Tween-80
[5] = dose: 200.0 mg/kg/injection, schedule: Q01DX009 (ip), vehicle: saline with Tween-80
[6] = dose: 25.0 mg/kg/injection, schedule: Q04DX003 (ip), vehicle: saline with Tween-80
[7] = dose: 50.0 mg/kg/injection, schedule: Q04DX003 (ip), vehicle: saline with Tween-80
[8] = dose: 50.0 mg/kg/injection, schedule: Q01DX005 (ip), vehicle: saline with Tween-80
[9] = dose: 100.0 mg/kg/injection, schedule: Q01DX005 (ip), vehicle: saline with Tween-80
[10] = dose: 400.0 mg/kg/injection, schedule: Q01DX009 (ip), vehicle: saline with Tween-80
[11] = dose: 50.0 mg/kg/injection, schedule: Q01DX005 (ip), vehicle: Klucel (hydroxypropylcellulose) (HPC)
[12] = dose: 100.0 mg/kg/injection, schedule: Q01DX005 (ip), vehicle: Klucel (hydroxypropylcellulose) (HPC)
[13] = dose: 200.0 mg/kg/injection, schedule: Q01DX005 (ip), vehicle: Klucel (hydroxypropylcellulose) (HPC)

In the case of `C/C(=N\NC(N)=Nc1ccc(Cl)cc1)c1ccc2c(c1)Cc1cc(/C(C)=N/NC(N)=Nc3ccc(Cl)cc3)ccc1-2`, the T/C (dose: 25.0 mg/kg/injection, schedule: Q04DX002 (ip), vehicle: saline with Tween-80) is reported as 87 % of control, the T/C (dose: 50.0 mg/kg/injection, schedule: Q04DX002 (ip), vehicle: saline with Tween-80) is reported as 90 % of control and the T/C (dose: 100.0 mg/kg/injection, schedule: Q04DX002 (ip), vehicle: saline with Tween-80) is reported as 97 % of control. For the same molecule, the T/C (dose: 200.0 mg/kg/injection, schedule: Q04DX002 (ip), vehicle: saline with Tween-80) was 101 % of control and the T/C (dose: 400.0 mg/kg/injection, schedule: Q04DX002 (ip), vehicle: saline with Tween-80) was 100 % of control.

For `O=[N+]([O-])c1ccc2nc3c4ccccc4c4ccccc4c3nc2c1`, the T/C [1] was 105 % of control, the T/C [2] was 116 % of control and the T/C [3] was 109 % of control and 117 % of control. For the same molecule, the T/C [4] was 105 % of control and the T/C [5] was 104 % of control.

In the case of `O=C(O)C1CCC[N-]C1.O=C(O)C1CCC[N-]C1.[Cl][Pt+2][Cl]` (stereo unspecified), the T/C (dose: 5.0 mg/kg/injection, schedule: Q01DX009 (ip), vehicle: saline with Tween-80) is reported as 100 % of control, the T/C (dose: 10.0 mg/kg/injection, schedule: Q01DX009 (ip), vehicle: saline with Tween-80) is reported as 104 % of control and the T/C (dose: 20.0 mg/kg/injection, schedule: Q01DX009 (ip), vehicle: saline with Tween-80) is reported as 109 % of control.

For `CCCCCCCCP(=O)(N1CC1C)N1CC1C` (stereo unspecified), the T/C (dose: 3.13 mg/kg/injection, schedule: Q01DX009 (ip), vehicle: saline) was 109 % of control, the T/C (dose: 6.25 mg/kg/injection, schedule: Q01DX009 (ip), vehicle: saline) was 109 % of control and the T/C [1] was 122 % of control. For the same molecule, the T/C (dose: 12.5 mg/kg/injection, schedule: Q01DX009 (ip), vehicle: saline) was 109 % of control, the T/C (dose: 12.5 mg/kg/injection, schedule: Q04DX003 (ip), vehicle: saline with Tween-80) was 100 % of control and the T/C [6] was 95 % of control. For the same molecule, the T/C [7] was 109 % of control and the T/C (dose: 50.0 mg/kg/injection, schedule: Q04DX003 (ip), vehicle: saline) was 108 % of control.

With `C=C1C[C@@H](C2OC3OC(C)(C)OC3C2OCc2ccccc2)OC1=O` (stereo partly specified) the T/C [8] was 116 % of control and the T/C [9] was 124 % of control.

`COc1ccc(Nc2ccc([N+](=O)[O-])c3nonc23)cc1` was tested, and the T/C [8] was 92 % of control and the T/C [9] was 87 % of control.

In the case of `O=c1[nH]c(CNCCO)nc2sc3c(c12)CCCC3`, the T/C [3] is reported as 100 % of control, the T/C [4] is reported as 105 % of control and the T/C [5] is reported as 96 % of control.

`COc1cc2c(c(OC)c1OC)-c1ccc(OC)c(=O)cc1[C@@H](N(C)Cc1ccccc1O)CC2` was tested, and the T/C (dose: 1.25 mg/kg/injection, schedule: Q01DX009 (ip), vehicle: Klucel (hydroxypropylcellulose) (HPC)) was 97 % of control, the T/C (dose: 2.5 mg/kg/injection, schedule: Q01DX009 (ip), vehicle: Klucel (hydroxypropylcellulose) (HPC)) was 97 % of control and the T/C (dose: 5.0 mg/kg/injection, schedule: Q01DX009 (ip), vehicle: Klucel (hydroxypropylcellulose) (HPC)) was 111 % of control. For the same molecule, the T/C (dose: 20.0 mg/kg/injection, schedule: Q01DX009 (ip), vehicle: Klucel (hydroxypropylcellulose) (HPC)) was 166 % of control and 188 % of control.

With `COc1ccc2c(c1OC)CN1CCc3cc4c(cc3C1C2C)OCO4` (stereo unspecified) the T/C (dose: 50.0 mg/kg/injection, schedule: Q04DX003 (ip), vehicle: distilled water + Tween-80) was 91 % of control, the T/C (dose: 100.0 mg/kg/injection, schedule: Q04DX003 (ip), vehicle: distilled water + Tween-80) was 96 % of control and the T/C (dose: 200.0 mg/kg/injection, schedule: Q04DX003 (ip), vehicle: distilled water + Tween-80) was 91 % of control. The T/C (dose: 400.0 mg/kg/injection, schedule: Q04DX003 (ip), vehicle: distilled water + Tween-80) was 89 % of control.

`Cc1ccc(/C=N\N=C\c2ccc(C)cc2)cc1` was tested, and the T/C [3] was 100 % of control, the T/C [7] was 91 % of control and the T/C [4] was 90 % of control. The T/C (dose: 100.0 mg/kg/injection, schedule: Q04DX003 (ip), vehicle: saline with Tween-80) was 87 % of control, the T/C [5] was 90 % of control and the T/C (dose: 200.0 mg/kg/injection, schedule: Q04DX003 (ip), vehicle: saline with Tween-80) was 91 % of control.

In the case of `O=C1OCC/C1=C1\CCCO1`, the T/C [1] is reported as 112 % of control and 97 % of control, the T/C [2] is reported as 100 % of control and 102 % of control and the T/C [3] is reported as 98 % of control and 99 % of control. The T/C [4] was 102 % of control and 108 % of control and 116 % of control, the T/C [5] was 112 % of control and the T/C [10] was 113 % of control.

For `NC(CSC(c1ccccc1)(c1ccccc1)c1ccccc1)C(=O)OC(c1ccccc1)c1ccccc1` (stereo unspecified), the T/C (dose: 400.0 mg/kg/injection, schedule: Q04DX003 (ip), vehicle: saline with Tween-80) was 150 % of control and 154 % of control and the T/C (dose: 600.0 mg/kg/injection, schedule: Q04DX003 (ip), vehicle: saline with Tween-80) was 109 % of control.

For `N#CC1CNC(N)NC1N` (stereo unspecified), the T/C (dose: 60.0 mg/kg/injection, schedule: Q01DX005 (ip), vehicle: Klucel (hydroxypropylcellulose) (HPC)) was 99 % of control, the T/C (dose: 120.0 mg/kg/injection, schedule: Q01DX005 (ip), vehicle: Klucel (hydroxypropylcellulose) (HPC)) was 91 % of control and the T/C (dose: 240.0 mg/kg/injection, schedule: Q01DX005 (ip), vehicle: Klucel (hydroxypropylcellulose) (HPC)) was 90 % of control.

For `Brc1c(C(Br)Br)ccc2ccccc12`, the T/C [11] was 103 % of control, the T/C [12] was 105 % of control and the T/C [13] was 109 % of control.

With `COC(=O)C1(C)CCCC2(C)c3cc(OC)ccc3C3(CC12)OCCO3` (stereo unspecified) the T/C (dose: 5.0 mg/kg/injection, schedule: Q01DX009 (ip), vehicle: saline) was 98 % of control, the T/C (dose: 10.0 mg/kg/injection, schedule: Q01DX009 (ip), vehicle: saline) was 95 % of control and the T/C (dose: 20.0 mg/kg/injection, schedule: Q01DX009 (ip), vehicle: saline) was 89 % of control.

With `O=C(O)c1cc(Br)ccc1OCc1cccc(Cl)c1` the T/C [6] was 101 % of control and the T/C [7] was 98 % of control.

`COc1ccc(C(=O)O)c(N)c1` was tested, and the T/C [4] was 90 % of control, the T/C [5] was 95 % of control and the T/C [10] was 109 % of control.

For `CS(=O)(=O)N1CC=CCS1=O` (stereo unspecified), the T/C (dose: 6.25 mg/kg/injection, schedule: Q01DX009 (ip), vehicle: Klucel (hydroxypropylcellulose) (HPC)) was 103 % of control, the T/C (dose: 12.5 mg/kg/injection, schedule: Q01DX009 (ip), vehicle: Klucel (hydroxypropylcellulose) (HPC)) was 108 % of control and the T/C (dose: 25.0 mg/kg/injection, schedule: Q01DX009 (ip), vehicle: Klucel (hydroxypropylcellulose) (HPC)) was 108 % of control.

In the case of `COC(=O)c1c(-c2ccc(OC)c(OC)c2)cn(C)c1C`, the T/C [8] is reported as 104 % of control, the T/C [9] is reported as 96 % of control and the T/C (dose: 200.0 mg/kg/injection, schedule: Q01DX005 (ip), vehicle: saline with Tween-80) is reported as 91 % of control.

With `COC(=O)C1=C(N)SS/C1=C/[N+](=O)[O-]` the T/C [11] was 106 % of control, the T/C [12] was 103 % of control and the T/C [13] was 101 % of control.

In the case of `O=C1/C(=C\c2ccccc2)C(NC2CCCCC2)c2ccccc21` (stereo unspecified), the T/C (dose: 3.12 mg/kg/injection, schedule: Q01DX005 (ip), vehicle: Klucel (hydroxypropylcellulose) (HPC)) is reported as 109 % of control, the T/C (dose: 6.25 mg/kg/injection, schedule: Q01DX005 (ip), vehicle: Klucel (hydroxypropylcellulose) (HPC)) is reported as 100 % of control and the T/C (dose: 12.5 mg/kg/injection, schedule: Q01DX005 (ip), vehicle: Klucel (hydroxypropylcellulose) (HPC)) is reported as 107 % of control. For the same molecule, the T/C (dose: 25.0 mg/kg/injection, schedule: Q01DX005 (ip), vehicle: Klucel (hydroxypropylcellulose) (HPC)) was 107 % of control.

In the case of `Cc1nc2cc(C(=O)NC=O)c3n[nH]nc3c2n1C`, the T/C (dose: 4.0 mg/kg/injection, schedule: Q01DX005 (ip), vehicle: DMSO) is reported as 98 % of control, the T/C (dose: 8.0 mg/kg/injection, schedule: Q01DX005 (ip), vehicle: DMSO) is reported as 103 % of control and the T/C (dose: 16.0 mg/kg/injection, schedule: Q01DX005 (ip), vehicle: DMSO) is reported as 94 % of control. The T/C (dose: 32.0 mg/kg/injection, schedule: Q01DX005 (ip), vehicle: DMSO) was 93 % of control.

For `CSc1ccc(N2C(=O)CSC2=S)cc1Cl`, the T/C (dose: 50.0 mg/kg/injection, schedule: Q01DX009 (ip), vehicle: suspension in saline) was 101 % of control, the T/C (dose: 100.0 mg/kg/injection, schedule: Q01DX009 (ip), vehicle: suspension in saline) was 99 % of control and the T/C (dose: 200.0 mg/kg/injection, schedule: Q01DX009 (ip), vehicle: suspension in saline) was 104 % of control.

With `COC(=O)[C@@H]1C(=O)[C@H](C(=O)OC)C2CCCC3CCCC1N32` (stereo partly specified) the T/C [8] was 98 % of control and the T/C [9] was 98 % of control.
